From ChEMBL document CHEMBL6121025, “Novel Compounds as CDK2 Inhibitors for Treating Cancer” (ACS Med Chem Lett, 2025)

The compounds below were run against Cyclin-dependent kinase 2/cyclin E1 (Homo sapiens) (UniProt P24864+P24941) (assay: Inhibition of C-terminal Avi-tagged CDK2/Cyclin E1 (unknown origin) extracted from Escherichia coli assessed as reduction in RB1 phosphorylation at S780 residue incubated for 60 mins in the presence of ATP by TR-FRET assay).
Assay type: protein-complex assay

INH	SMILES
0.007 µM	O=C1N([C@@H]2CCC[C@@H](O)C2)c2nc(Nc3c[nH]nc3C(F)F)ncc2C12CC2
0.006 µM	O=C1N([C@@H]2CCC[C@@H](O)C2)c2nc(Nc3c[nH]nc3O[C@@H]3CC3(F)F)ncc2C12CC2

More lines, now with the values behind:

SMILES	INH
O=C1N([C@@H]2CCC[C@@H](O)C2)c2nc(Nc3c[nH]nc3[C@H]3CC3(F)F)ncc2C12CC2	0.006 µM
O=C1N([C@@H]2CCC[C@@H](O)C2)c2nc(Nc3c[nH]nc3OCC(F)F)ncc2C12CC2	0.005 µM
O=C1N([C@@H]2CCC[C@@H](O)C2)c2nc(Nc3c[nH]nc3-c3cnn4cccnc34)ncc2C12CC2	0.006 µM
O=C1N([C@@H]2CCC[C@@H](O)C2)c2nc(Nc3c[nH]nc3O[C@H]3CC3(F)F)ncc2C12CC2	0.006 µM
